Molecules are shown by their SMILES.

Assay [1] deals with platelet aggregation induced by PAF. Put plainly: Inhibition of platelet aggregation induced by PAF. Type of assay: cell-based. The conditions noted are these: Oryctolagus cuniculus, male New Zealand rabbits, Table I. The protocol: 1) Inhibition of platelet aggregation induced by PAF
This experimentation was conducted according to the method of R. KINLOUGH. RATHBONE, J. P. CAZENAVE, M. PACKHAM and F. MUSTARD, Lab. Invest. 48, 98, 1980. In this test, New Zealand rabbits were used (male New Zealand rabbits of an average weight of 5 kg).
The determinations are made on a chrono-log Coultronics aggregometer, at […] coupled with a graphic recorder; the results of these determinations (in molecular concentration) are reported on the table I on the central column.

Assay [2] is described as follows: Global ischemia on gerbils. The following applies: Meriones unguiculatus, 168 h, carotides clamped 10 minutes, hippocampes one week later, 3H-PK 11195, percentage of protection compared to control. In kind it is in vivo. The protocol: 3) Global ischemia on gerbils For this test, males gerbils were anaesthetized with brietal at the doses of 35 mg/kg IP; thereafter, both carotides were clamped for 10 minutes, then the clamping was released. Treated animals received each 10 mg/kg of the compounds of one of the examples. One week later, the animals were killed and both hippocampes were taken, weighed and frozen at -80° C. After crushing with 1 ml of TRIS-HCl pH 7.4 for 30 seconds, aliquots of each 50 μl of this preparation were incubed in each 1 ml of TRIS-HCl buffer containing ^3 H-PK 11195 at 2 nM (90 Ci/mmole, NENE, Germany) for 1 hour at 25° C. For each preparation, 3 determinations were made. The density of omega 3 sites (marked by the specific ^3 H-PK 11195 marker) are expressed in f-moles of PK 11195/mg of fresh tissues and converted in percentage of protection compared to control.

For a further assay, the target named is benzodiazepine receptors. Nature of the assay: Inhibition of the binding to benzodiazepine receptors. The following applies: rat brains, 1 hour 30 minutes at 4° C., tracers 3H-RO-15-1788 and 3H-RO-5-4864, Table I, read-out: BDZ receptors. The text has this:
2) Inhibition of the binding to benzodiazepine receptors
The interest of the previous experimentation depends on the results obtained in this experimentation: as a compound of the invention has a benzodiazepine like structure, it is important to check whether the specific benzodiazepine activity would not appear at the dose where platelet aggregation was inhibited.
Therefore, this experimentation has been conducted according to the method of MOHLER H. and RICHARD J. G. Agonist and antagonist benzodiazepine receptor interaction in vitro, Nature, vol. 294, 763-765, 1981.
This experimentation was conducted on rat brains incubated 1 hour 30 minutes at 4° C. using ^3 H-RO-15-1788 and ^3 H-RO-5-4864 (NEN) as tracers and […] and RO-5-4864 as reference antagonists.
The results in molecular concentration are reported in the table I, on the right hand column.

In the case of `Cc1nnc2n1-c1sc3c(c1C(c1ccccc1Cl)=NC2)CCN(C(=S)CSc1ccc(C(C)(C)C)cc1)C3` [Example 18, 6-(2-chlorophenyl)-9-(4-t.butylphenylthiomethyl-thiocarbonyl)-7,8,9, 10-tetrahydro-1-methyl-4H-pyrido [4',3':4,5] thieno [3,2-f] 1,2,4-triazolo[4,3-a] 1,4-diazepine], the results for the IC50 (in assay [1]; at benzodiazepine receptors) were 23 nM and 44100 nM, respectively. In addition, the inhibition in vivo – broadly, the share of the control response that was lost under treatment – at 10 mg/kg in assay [2] was 12.6%.

On to `Cc1nnc2n1-c1sc3c(c1C(c1ccccc1Cl)=NC2)CCN(C(=O)CSc1ccccc1C(F)(F)F)C3` [Example 19, 6-(2-chlorophenyl)-9-(2-trifluoromethylphenylthiomethylcarbonyl)-7,8,9, 10-tetrahydro-1-methyl-4H-pyrido [4',3':4,5] thieno [3,2-f] 1,2,4-triazolo[4,3-a] 1,4-diazepine], for which the IC50 in assay [1] turned out to be 6.36 nM; at benzodiazepine receptors, 270 nM. The compound also registered an inhibition in vivo at 10 mg/kg in assay [2] of 45.6%.

As to `Cc1nnc2n1-c1sc3c(c1C(c1ccccc1Cl)=NC2)CCN(C(=S)CSc1ccccc1C(F)(F)F)C3` [Example 20, 6-(2-chlorophenyl)-9-(2-trifluoromethylphenylthiomethylthiocarbonyl)-7,8,9, 10-tetrahydro-1-methyl-4H-pyrido [4',3':4,5] thieno [3,2-f] 1,2,4-triazolo [4,3-a] 1,4-diazepine], the IC50 was found to be 146 nM in assay [1] and 1600 nM at benzodiazepine receptors. The compound further showed an inhibition in vivo at 10 mg/kg in assay [2] of 32.7%.

`Cc1nnc2n1-c1sc3c(c1C(c1ccccc1Cl)=NC2)CCN(C(=O)CSc1cccc(C(F)(F)F)c1)C3` [Example 21, 6-(2-chlorophenyl)-9-(3-trifluoromethylphenylthiomethylcarbonyl)-7,8,9, 10-tetrahydro-1-methyl-4H-pyrido [4',3':4,5] thieno [3,2-f] 1,2,4-triazolo[4,3-a] 1,4-diazepine]: the IC50 in assay [1] was 8.66 nM; at benzodiazepine receptors, 810 nM. The inhibition in vivo at 10 mg/kg in assay [2] was 34.1%.

Take `Cc1nnc2n1-c1sc3c(c1C(c1ccccc1Cl)=NC2)CCN(C(=S)CSc1cccc(C(F)(F)F)c1)C3` [Example 22, 6-(2-chlorophenyl)-9-(3-trifluoromethylphenylthiomethylthiocarbonyl)-7,8,9, 10-tetrahydro-1-methyl-4H-pyrido [4',3':4,5] thieno [3,2-f] 1,2,4-triazolo [4,3-a] 1,4-diazepine]: the IC50 in assay [1] stood at 8.18 nM; on benzodiazepine receptors, 610 nM. For the same compound, the inhibition in vivo at 10 mg/kg in assay [2] was 48.1%.

In the case of `Cc1nnc2n1-c1sc3c(c1C(c1ccccc1Cl)=NC2)CCN(C(=O)CSc1ccc(C(F)(F)F)cc1)C3` [Example 23, 6-(2-chlorophenyl)-9-(4-trifluoromethylphenylthiomethylcarbonyl)-7,8,9, 10-tetrahydro-1-methyl-4H-pyrido [4',3':4,5] thieno [3,2-f] 1,2,4-triazolo[4,3-a] 1,4-diazepine], the IC50 came to 12.4 nM in assay [1] and 1200 nM at benzodiazepine receptors. In addition, in assay [2], the inhibition in vivo at 10 mg/kg came to 37.5%.

For `Cc1nnc2n1-c1sc3c(c1C(c1ccccc1Cl)=NC2)CCN(C(=S)CSc1ccc(C(F)(F)F)cc1)C3` [Example 24, 6-(2-chlorophenyl)-9-(4-trifluoromethylphenylthiomethylthiocarbonyl)-7,8,9, 10-tetrahydro-1-methyl-4H-pyrido [4',3':4,5] thieno [3,2-f] 1,2,4-triazolo [4,3-a] 1,4-diazepine], the IC50 in assay [1] is 32.7 nM; at benzodiazepine receptors, 3300 nM. Besides, the inhibition in vivo at 10 mg/kg in assay [2] was found to be 38.7%.

As for `Cc1nnc2n1-c1sc3c(c1C(c1ccccc1Cl)=NC2)CCN(C(=O)CSc1ccc(F)cc1)C3` [Example 25, 6-(2-chlorophenyl)-9-(4-fluorophenylthiomethyl-carbonyl)-7,8,9, 10-tetrahydro-1-methyl-4H-pyrido [4',3':4,5] thieno [3,2-f] 1,2,4-triazolo[4,3-a] 1,4-diazepine], the IC50 in assay [1] turned out to be 11.3 nM; on benzodiazepine receptors it was 630 nM. Besides, in assay [2], the inhibition in vivo at 10 mg/kg came to 14.7%.

For the compound `Cc1nnc2n1-c1sc3c(c1C(c1ccccc1Cl)=NC2)CCN(C(=S)CSc1ccc(F)cc1)C3` [Example 26, 6-(2-chlorophenyl)-9-(4-fluorophenylthiomethyl-thiocarbonyl)-7,8,9, 10-tetrahydro-1-methyl-4H-pyrido [4',3':4,5] thieno [3,2-f] 1,2,4-triazolo[4,3-a] 1,4-diazepine], the IC50 was 6.56 nM in assay [1] and 610 nM on benzodiazepine receptors. This compound also showed an inhibition in vivo at 10 mg/kg in assay [2] of 26.5%.

As for `Cc1nnc2n1-c1sc3c(c1C(c1ccccc1Cl)=NC2)CCN(C(=O)CSc1cccc(Cl)c1Cl)C3` [Example 27, 6-(2-chlorophenyl)-9-(2,3-dichlorophenylthiomethyl-carbonyl)-7,8,9, 10-tetrahydro-1-methyl-4H-pyrido [4',3':4,5] thieno [3,2-f] 1,2,4-triazolo[4,3-a] 1,4-diazepine], the IC50 was determined as 8.45 nM in assay [1] and 48000 nM at benzodiazepine receptors. In assay [2], 10 mg/kg produced 33.3% inhibition in vivo.

With `Cc1nnc2n1-c1sc3c(c1C(c1ccccc1Cl)=NC2)CCN(C(=S)CSc1cccc(Cl)c1Cl)C3` [Example 28, 6-(2-chlorophenyl)-9-(2,3-dichlorophenylthiomethyl-thiocarbonyl)-7,8,9, 10-tetrahydro-1-methyl-4H-pyrido [4',3':4,5] thieno [3,2-f] 1,2,4-triazolo[4,3-a] 1,4-diazepine], the IC50 in assay [1] was found to be 9.06 nM; on benzodiazepine receptors, 4300 nM. This compound displayed an inhibition in vivo at 10 mg/kg in assay [2] of 35.3%.

On to `Cc1nnc2n1-c1sc3c(c1C(c1ccccc1Cl)=NC2)CCN(C(=O)CSc1ccc(Oc2ccccc2)cc1)C3` [Example 29, 6-(2-chlorophenyl)-9-(4-phenoxyphenylthiomethyl-carbonyl) 7,8,9, 10-tetrahydro-1-methyl-4H-pyrido [4',3':4,5] thieno [3,2-f] 1,2,4-triazolo[4,3-a] 1,4-diazepine], for which the IC50 came to 9.05 nM in assay [1] and 1230 nM on benzodiazepine receptors. The compound also had an inhibition in vivo at 10 mg/kg in assay [2] of 51.6%.

Consider `Cc1nnc2n1-c1sc3c(c1C(c1ccccc1Cl)=NC2)CCN(C(=S)CSc1ccc(Oc2ccccc2)cc1)C3` [Example 30, 6-(2-chlorophenyl)-9-(4-phenoxyphenylthiomethyl-thiocarbonyl)-7,8,9, 10-tetrahydro-1-methyl-4H-pyrido [4',3':4,5] thieno [3,2-f] 1,2,4-triazolo[4,3-a] 1,4-diazepine], for which the IC50 in assay [1] was 104 nM; on benzodiazepine receptors, 360 nM. Also, the inhibition in vivo at 10 mg/kg in assay [2] amounted to 16.1%.

In the case of `Cc1nnc2n1-c1sc3c(c1C(c1ccccc1Cl)=NC2)CCN(C(=O)CSc1ccco1)C3` [Example 31, 6-(2-chlorophenyl)-9-(2-furyl-thiomethyl-carbonyl)-7,8,9, 10-tetrahydro-1-methyl-4H-pyrido [4',3':4,5] thieno [3,2-f] 1,2,4-triazolo[4,3-a] 1,4-diazepine], the IC50 in assay [1] stood at 7.1 nM; on benzodiazepine receptors it was 230 nM. Also, the inhibition in vivo at 10 mg/kg in assay [2] was 36.2%.

As for `Cc1nnc2n1-c1sc3c(c1C(c1ccccc1Cl)=NC2)CCN(C(=S)CSc1ccco1)C3` [Example 32, 6-(2-chlorophenyl)-9-(2-furyl-thiomethyl-thiocarbonyl)-7,8,9, 10-tetrahydro-1-methyl-4H-pyrido [4',3':4,5] thieno [3,2-f] 1,2,4-triazolo[4,3-a] 1,4-diazepine], the figures for the IC50 (in assay [1]; at benzodiazepine receptors) were 8.75 nM and 1300 nM, respectively. In assay [2], the inhibition in vivo at 10 mg/kg is 30.3%.

The values are drawn from patent US5049559A, “Thieno-triazolo-diazepine derivatives useful as anti-ischemic agents” (priority 1989, dated 1991).
